Source: article PMC11480361, “Design of a Cereblon construct for crystallographic and biophysical studies of protein degraders” (Nature Communications, 2024)
Where “and” joins values, the source holds several entries; their conditions need not be identical. Identical values can stand only once.

Legend:
[1] = molecular target: T1, CRBN^midi and BRD4^BD2 (Homo sapiens, UniProt O60885+Q96SW2, C287N/C343E/C78I/DEL188-248/G302D/I92V/INS187GSG/K116N/L342R/L423I/Q134E/R283W/T359I/V293S); assay: TR-FRET ternary complex formation with BRD4^BD2; format: binding; conditions: for TR-FRET signal: CRBNmidi, source data Fig. 3h, replicates
T1 construct: amino acids 41-187 followed by a Gly-Ser-Gly linker and amino acids 249-426; Human Brd4^BD2 (residues 333–460, UniProt ID: O60885); His6 (N); made in house; host or cells: E. coli BL21(DE3)
T1 sequence (Q96SW2 with tags, fused parts or gaps with the stated changes limits assumed, other chains not shown): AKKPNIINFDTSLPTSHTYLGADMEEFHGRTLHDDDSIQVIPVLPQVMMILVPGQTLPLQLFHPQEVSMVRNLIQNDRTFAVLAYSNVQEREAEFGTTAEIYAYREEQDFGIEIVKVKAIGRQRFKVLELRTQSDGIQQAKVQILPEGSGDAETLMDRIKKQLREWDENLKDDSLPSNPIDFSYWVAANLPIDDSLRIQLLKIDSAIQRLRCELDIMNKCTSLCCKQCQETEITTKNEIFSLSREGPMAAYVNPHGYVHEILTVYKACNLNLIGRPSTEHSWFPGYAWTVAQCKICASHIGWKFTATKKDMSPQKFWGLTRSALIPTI
Method: (§1) The mixture was incubated in the dark with gentle rocking for 1 hour before readout using a PHERAstar microplate reader (BMG Labtech) with Pherastar software (version 5.70 R5). All incubations were conducted at 20 °C. Data were fitted by non-linear regression (curve fit) using Prism software (GraphPad version 10). Experiments were conducted in triplicate and were the average of three repeats.

[2] = test system: T2, CRBN^TBD and BRD4^BD2; assay: TR-FRET ternary complex formation with BRD4^BD2; format: binding, human; conditions: for TR-FRET signal: CRBNTBD, source data Fig. 3h, replicates
T2 construct: Human Brd4^BD2 (residues 333–460, UniProt ID: O60885); GST (cleaved yes); His6; His6 (N); made in house; host or cells: E. coli BL21(DE3)
Method: as §1

[3] = test system: T3, CRBN^ΔN:DDB1^ΔBPB and BRD4^BD2; assay: TR-FRET ternary complex formation with BRD4^BD2; format: binding, human; conditions: for TR-FRET signal: CRBNΔN-DDB1ΔBPB, source data Fig. 3h, replicates
T3 construct: a construct lacking the unstructured N-terminal region of CRBN (CRBN^ΔN:DDB1); Human Brd4^BD2 (residues 333–460, UniProt ID: O60885); His6 (N); purchased Selvita
Method: as §1

[4] = molecular target: T4, CRBN^midi (Homo sapiens, UniProt Q96SW2, C287N/C343E/C78I/DEL188-248/G302D/I92V/INS187GSG/K116N/L342R/L423I/Q134E/R283W/T359I/V293S); assay: SPR, CRBN^midi on chip, binary; format: binding
T4 construct: amino acids 41-187 followed by a Gly-Ser-Gly linker and amino acids 249-426; His6 (N, cleaved yes); made in house; host or cells: E. coli BL21(DE3)
T4 sequence (Q96SW2 with tags, fused parts or gaps with the stated changes limits assumed): as the sequence (Q96SW2 with tags, fused parts or gaps with the stated changes limits assumed, other chains not shown) above
Method: All SPR measurements were carried out on a Biacore^TM 8 K (Cytiva, Biacore Insight Control Software version 5.0.18.22405). CRBN^midi was immobilized via a His6 tag on a NiHC 1500 M chip (XanTec) at 25 °C. The chip surface was prepared for ligand (CRBN^midi) capture as per manufacturer’s instructions, flowing 350 mM EDTA, followed by buffer, then loaded using 5 mM NiCl2 followed by buffer. For binary measurements CRBN^midi was diluted to 350 nM and flowed at 10 µL/min. for 420 s to capture a final bound response of 240 RUs. For […] measurements, 10 nM of CRBN^midi was flowed at 10 µl/min. for 420 s to capture a final bound response of approximately 10,000 RUs. The buffer for immobilization and all kinetic measurements was 50 mM Tris pH 8.0, 150 mM NaCl, 0.25 mM TCEP, 0.005% (v/v) Tween-20 and 2% (v/v) DMSO.
(§2) For ternary experiments the analyte was supplemented with 50 µM BRD4^BD2. Each concentration point was flowed independently at 50 µL/min. with an association time of 150 s followed by 500 s dissociation. All measurements were carried out at 20 °C.
(§3) Data was analyzed using Biacore^TM Insight Evaluation Software (version 4.0.8.20368). Raw sensograms were solvent corrected, followed by reference and blank subtraction. […] Alpha, a parameter indicative of cooperativity, was calculated by dividing binary KD by ternary KD.

[5] = molecular target: T1, CRBN^midi and BRD4^BD2; assay: SPR, CRBN^midi on chip, ternary (analyte with 50 µM BRD4^BD2); format: binding
Method: All SPR measurements were carried out on a Biacore^TM 8 K (Cytiva, Biacore Insight Control Software version 5.0.18.22405). […] The buffer for immobilization and all kinetic measurements was 50 mM Tris pH 8.0, 150 mM NaCl, 0.25 mM TCEP, 0.005% (v/v) Tween-20 and 2% (v/v) DMSO.
as §2, §3

[6] = CRBN^midi immobilization level 9581
[7] = CRBN^midi immobilization level 240

SMILES: Cc1nnc2n1-c1ccc(-c3cnn(CCCCCCCN4CCC(c5cccc6c5CN(C5CCC(=O)NC5=O)C6=O)CC4)c3)cc1C(c1ccc(Cl)cc1)=NC21CC1 (centres unmarked) [CFT-1297]
- maximal concentration of bell-shaped TR-FRET profile ([1]; CRBN^midi, BRD4^BD2): 21 nM
- TR-FRET signal ([1]; CFT-1297 6.3657e-10 M): 120 and 116 and 105 and 148 and 130 and 152 and 174 and 158 and 167
- TR-FRET signal ([1]; CFT-1297 2.01156e-9 M): 347 and 363 (2×) and 394 and 412 and 387 and 420 (2×) and 430
- TR-FRET signal ([1]; CFT-1297 6.35653e-9 M): 931 and 924 and 913 and 954 and 948 and 945 and 981 and 982 and 990
- TR-FRET signal ([1]; CFT-1297 2.00866e-8 M): 1502 and 1521 and 1538 and 1551 and 1571 and 1561 and 1573 and 1559 and 1582
- TR-FRET signal ([1]; CFT-1297 6.34738e-8 M): 850 and 872 and 886 and 873 and 864 and 854 and 799 and 811 and 813
- TR-FRET signal ([1]; CFT-1297 2.00577e-7 M): 376 and 352 and 403 and 396 and 394 (2×) and 313 and 326 and 341
- TR-FRET signal ([1]; CFT-1297 6.33824e-7 M): 185 and 204 and 173 and 213 and 220 and 205 and 126 and 137 and 130
- TR-FRET signal ([1]; CFT-1297 2.00288e-6 M): 130 and 122 and 145 and 152 and 153 and 147 and 79 and 88 and 84
- TR-FRET signal ([1]; CFT-1297 6.32911e-6 M): 113 and 129 and 102 and 140 and 135 and 145 and 75 and 68 and 78
- TR-FRET signal ([2]; CFT-1297 6.3657e-10 M): -100 and -96 and -91 and -28 and -32 and -31 and -4 and -7 and 0
- TR-FRET signal ([2]; CFT-1297 2.01156e-9 M): 20 and 18 and 19 and 27 (2×) and 31 and 16 and 0 and 9
- TR-FRET signal ([2]; CFT-1297 6.35653e-9 M): 17 and 14 and 10 and 42 and 47 and 37 and 20 and 23 and 11
- TR-FRET signal ([2]; CFT-1297 2.00866e-8 M): 45 and 44 and 40 and 53 and 52 (2×) and 41 and 50
- TR-FRET signal ([2]; CFT-1297 6.34738e-8 M): 117 and 115 and 122 and 101 and 103 and 107 and 98 and 97 and 102
- TR-FRET signal ([2]; CFT-1297 2.00577e-7 M): 132 and 129 and 128 and 106 and 105 and 108 and 111 and 110
- TR-FRET signal ([2]; CFT-1297 6.33824e-7 M): 109 and 104 and 106 and 98 and 78 and 100
- TR-FRET signal ([2]; CFT-1297 2.00288e-6 M): 112 and 117 and 108 and 92 and 89 and 102 and 91 and 95 and 90
- TR-FRET signal ([2]; CFT-1297 6.32911e-6 M): 131 (2×) and 129 and 112 and 107 and 117 and 110 and 105
- ternary complex formation by TR-FRET ([2]; CRBN^TBD, BRD4^BD2): no significant ternary complex formation was detected
- maximal concentration of bell-shaped TR-FRET profile ([3]; CRBN^ΔN:DDB1^ΔBPB, BRD4^BD2): 17 nM
- TR-FRET signal ([3]; CFT-1297 6.3657e-10 M): 5 and -3 and 2 and 6 and 3 and 13 and 20
- TR-FRET signal ([3]; CFT-1297 2.01156e-9 M): 73 and 94 and 64 and 70 and 78 and 68 and 83 and 85 and 77
- TR-FRET signal ([3]; CFT-1297 6.35653e-9 M): 339 and 359 and 325 and 342 and 338 and 345 and 352 and 373 and 376
- TR-FRET signal ([3]; CFT-1297 2.00866e-8 M): 756 and 794 and 735 and 761 and 799 and 801 and 763 and 726 and 762
- TR-FRET signal ([3]; CFT-1297 6.34738e-8 M): 382 (2×) and 392 and 395 and 387 and 370 and 383 and 372 and 363
- TR-FRET signal ([3]; CFT-1297 2.00577e-7 M): 131 and 143 and 127 and 140 and 124 and 132 and 129 and 147 and 119
- TR-FRET signal ([3]; CFT-1297 6.33824e-7 M): 50 and 51 and 69 and 66 and 56 and 71 and 52 and 54 and 38
- TR-FRET signal ([3]; CFT-1297 2.00288e-6 M): 14 and 4 and 16 and 27 and 34 and 33 and -10 and -1 and -13
- TR-FRET signal ([3]; CFT-1297 6.32911e-6 M): 11 and 4 and 8 and 21 and 25 and 18 and 13 and 9 and 23
- Experimental Rmax / Theoretical Rmax [4]: 93%
- Kd [4]: 2100 nM
- Experimental Rmax [4, 6]: 196
- Theoretical Rmax [4, 6]: 211
- Experimental Rmax / Theoretical Rmax [5]: 55%
- cooperativity α (binary KD / ternary KD) [5]: 3
- Experimental Rmax [5, 7]: 56
- Theoretical Rmax [5, 7]: 101
